Data taken from patent US7629310B2, “RhoB as a suppressor of cancer cell growth, cell transformation, and metastasis” (University of South Florida, priority 2000, dated 2009).

Tests used:
RhoB promoter = RhoB promoter transcriptional activity (luciferase reporter) in human cancer cell lines A-549, Panc-1, C33A; assay type: cell-based; conditions: PANC-1 and A-549 cells expressing mutated K-Ras
Source text: Gene Constructs and RhoB Promoter Transcriptional Activity Assay. Constitutively active H-Ras61L, K-RasV12, N-RasV12, and dominant negative […]-Ras were kind gifts from Dr. Channing Der (University of North Carolina) (Khosravi-Far, R. et al., Mol Cell Biol, 1995, 15:6443-53; Quilliam, L. A. et al., Mol Cell Biol, 1994, 14:1113-21). Wild-type RhoA and RhoB were subcloned into hemaglutinin (HA)-tagged pcDNA3 (INVITROGEN). The orientation and the sequences of these genes were confirmed by DNA sequencing facilities at the H. Lee Moffitt Cancer Center, Tampa, Fla. RhoB promoter construct pGEI was kindly provided by Dr Y. Monden (Banyu Tsukuba Research, Japan) (Nakamura et al., 1996). pCMV-β-galactosidase vector was purchased from INVITROGEN. The plasmid containing CA-, DN-PI3K, Mek and Akt were kindly provided by Dr. Julie Y. Djeu (H. Lee Moffitt Cancer and Research Institute, Tampa, Fla.) (Jiang, K. et al., Blood, 2003, 101:236-44). β-galactosidase activity and luciferase assay kits were purchased from PROMEGA Corporation, Madison, Wis. The serum response element (SRE) reporter was provided by Dr. Richard Jove, H. Lee Moffitt Cancer and Research Institute, Tampa, Fla. […] Richard Jove, Oncology program, H. Lee Moffitt Cancer and Research Institute, Tampa, Fla. […] Human EGFR, ErbB2 cDNA construct were kindly provided by Dr. Noreen Luetteke, H. Lee Moffitt Cancer and Research Institute, Tampa, Fla. (Luetteke, N. C. et al., Genes Dev, 1994, 8:399-413). DNA transfection was performed with the standard lipofectamine protocol (INVITROGEN). Briefly, cells were plated in 60-mm plates, pGEI plasmid was used at 2 μg per plate, whereas all the other plasmids were used at 0.1-1.0 μg per plate. After transfection the cells were grown for another 36-48 h. Cells were then washed twice with PBS and lyzed in Promega Passive Lysis Buffer. Aliquots of the lysates were then used to measure the luciferase and β-galactosidase activities. The luciferase values were first divided by β-galactosidase values. The RhoB promoter transcriptional activity was determined by dividing the luciferase/β-Gal values from oncogene-transfected cells by those from pcDNA3-transfected cells. […] All the samples were performed in triplicate and the averages of 3 independent experiments were reported here. Proteins that induce malignant transformation and those that suppress tumorigenesis most likely antagonize each other's functions. […] Du, W. et al., Mol Cell Biol, 1999, 19:1831-40; Du, W. and Prendergast, G. C., Cancer Res, 1999, 59:5492-6). An objective of the experiments described herein was to determine whether oncogenes that are prevalent in human cancers suppress RhoB expression, and whether RhoB antagonizes the ability of these oncogenes to induce malignant transformation. To this end, the effects of several oncogenes on RhoB promoter transcriptional activity were first evaluated. NIH3T3 cells and human cancer cell lines derived from lung (A-549), pancreatic (Panc-1) and cervical (C33A) tumors were transiently transfected with pcDNA3 empty vectors or pcDNA3 constructs containing various oncogenes along with full length RhoB promoter firefly luciferase reporter and SRE-renilla luciferase reporter as well as a β-gal reporter for controlling transfection efficiency as described in the Materials and Methods section.

RhoB protein levels = experiment: RhoB protein level by Western blotting in NIH3T3 cells; assay type: cell-based; conditions: NIH3T3, 5-FU for 36 hrs (FIG. 2C)
PANC-1 cells = experiment: Invasion through […]-coated transfilters, PANC-1 cells; assay type: cell-based, human; conditions: PANC-1 cells (FIG. 9B)
Experimental: HRas/3T3 cells (FIG. 9A) and PANC-1 cells (FIG. 9B) were transiently transfected with pcDNA3 vector control, H-Ras61L, CA-Akt, or WT-Akt in the presence or absence of RhoA, RhoB, or pcDNA3 for 36 hours. The cells were then split and analyzed for their invading capabilities through […]-coated transfilters as described in the Materials and Methods section. PANC-1 and PC3 cells (FIG. 9C) were transiently transfected with pcDNA3, with H-Ras61L in the presence or absence of RhoA, or RhoB for 36 hours. The cells were then serum-starved for another 36 hours; the conditioned medium was collected and 20 μg protein were analyzed for MMP-2 expression by Western Blotting.
Whether RhoB can also antagonize cell invasion was evaluated. To this end, H-Ras/3T3 and PANC-1 cells were similarly transfected as above with various oncogenes along with RhoA or RhoB, then seeded onto […]-coated poly-hydrocarbonate filters mounted in the middle of a Boyden transwell apparatus as described under Methods. […] Furthermore, transfection with CA-Akt or WT-Akt enhanced invasion; and RhoB, not RhoA, inhibited this enhancement of invasion (FIGS. 9A and 9B).

## O=c1[nH]cc(F)c(=O)[nH]1 [5-FU, 5-fluorouracil]
RhoB promoter
  5-FU induction of RhoB promoter activity: both cell lines are resistant to 5-FU
RhoB protein levels
  induction of RhoB protein levels: 3 fold

## RhoA: closely related family member sharing 86% sequence identity with RhoB; wild-type, in HA-tagged pcDNA3, transfected as control
PANC-1 cells
  invasion through MATRIGEL: invaded
